Experimental data taken from the kinase profiling compilation of Christmann-Franck et al. (2016).

How the values were obtained:
Assay in all cases: KINOMEscan competition binding
Settings in all cases: compound 10.0 µM
AKT1 (human) = AKT1 (human) (UniProt P31749)
AKT3 (human) = AKT3 (human) (UniProt Q9Y243)
CDC42BPA (human) = CDC42BPA (human) (UniProt Q5VT25)
CDC42BPG (human) = CDC42BPG (human) (UniProt Q6DT37)
CDK11B (human) = CDK11B (human) (UniProt P21127)
CDK14 (human) = CDK14 (human) (UniProt O94921)
Chain of CDK14 (human) (O94921 whole entry, looked up): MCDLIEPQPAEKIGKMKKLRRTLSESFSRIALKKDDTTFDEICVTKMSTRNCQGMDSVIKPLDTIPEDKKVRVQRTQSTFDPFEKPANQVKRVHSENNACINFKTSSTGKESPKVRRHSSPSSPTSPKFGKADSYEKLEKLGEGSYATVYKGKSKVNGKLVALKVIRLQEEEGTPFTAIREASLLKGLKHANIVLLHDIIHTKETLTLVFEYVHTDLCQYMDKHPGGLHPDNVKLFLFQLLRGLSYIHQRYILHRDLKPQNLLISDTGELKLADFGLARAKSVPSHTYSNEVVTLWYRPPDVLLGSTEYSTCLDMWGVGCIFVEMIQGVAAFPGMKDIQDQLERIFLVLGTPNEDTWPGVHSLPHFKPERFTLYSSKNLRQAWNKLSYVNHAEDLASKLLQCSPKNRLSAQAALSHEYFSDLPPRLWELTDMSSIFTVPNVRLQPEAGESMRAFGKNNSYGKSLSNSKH

CSF1R (human) = CSF1R (human) (UniProt P07333)
DYRK1B (human) = DYRK1B (human) (UniProt Q9Y463)
[1] = test system: EGFR (human), P00533 [752-759 del]
EPHA8 (human) = EPHA8 (human) (UniProt P29322)
[2] = test system: FLT3 (human), P36888 [R834Q]
LYN (human) = LYN (human) (UniProt P07948)
MAP2K2 (human) = MAP2K2 (human) (UniProt P36507)
Chain of MAP2K2 (human) (P36507 whole entry, looked up): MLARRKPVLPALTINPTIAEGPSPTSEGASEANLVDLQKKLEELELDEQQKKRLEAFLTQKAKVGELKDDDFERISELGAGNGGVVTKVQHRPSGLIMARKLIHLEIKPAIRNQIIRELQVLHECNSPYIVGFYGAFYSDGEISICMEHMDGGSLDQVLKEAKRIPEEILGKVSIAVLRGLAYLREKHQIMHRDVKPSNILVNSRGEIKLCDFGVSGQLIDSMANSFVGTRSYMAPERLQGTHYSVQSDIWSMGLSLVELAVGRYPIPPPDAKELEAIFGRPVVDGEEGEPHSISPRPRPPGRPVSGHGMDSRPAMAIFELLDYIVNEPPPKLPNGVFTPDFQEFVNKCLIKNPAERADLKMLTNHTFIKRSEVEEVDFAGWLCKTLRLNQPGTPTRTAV

MAP2K3 (human) = MAP2K3 (human) (UniProt P46734)
MAP2K4 (human) = MAP2K4 (human) (UniProt P45985)
MAP4K3 (human) = MAP4K3 (human) (UniProt Q8IVH8)
MAPK1 (human) = MAPK1 (human) (UniProt P28482)
MAPK10 (human) = MAPK10 (human) (UniProt P53779)
MAPK15 (human) = MAPK15 (human) (UniProt Q8TD08)
[3] = test system: MET (human), P08581 [Y1235D]
MKNK2 (human) = MKNK2 (human) (UniProt Q9HBH9)
NLK (human) = NLK (human) (UniProt Q9UBE8)
PAK3 (human) = PAK3 (human) (UniProt O75914)
PAK6 (human) = PAK6 (human) (UniProt Q9NQU5)
Chain of PAK6 (human) (Q9NQU5 whole entry, looked up): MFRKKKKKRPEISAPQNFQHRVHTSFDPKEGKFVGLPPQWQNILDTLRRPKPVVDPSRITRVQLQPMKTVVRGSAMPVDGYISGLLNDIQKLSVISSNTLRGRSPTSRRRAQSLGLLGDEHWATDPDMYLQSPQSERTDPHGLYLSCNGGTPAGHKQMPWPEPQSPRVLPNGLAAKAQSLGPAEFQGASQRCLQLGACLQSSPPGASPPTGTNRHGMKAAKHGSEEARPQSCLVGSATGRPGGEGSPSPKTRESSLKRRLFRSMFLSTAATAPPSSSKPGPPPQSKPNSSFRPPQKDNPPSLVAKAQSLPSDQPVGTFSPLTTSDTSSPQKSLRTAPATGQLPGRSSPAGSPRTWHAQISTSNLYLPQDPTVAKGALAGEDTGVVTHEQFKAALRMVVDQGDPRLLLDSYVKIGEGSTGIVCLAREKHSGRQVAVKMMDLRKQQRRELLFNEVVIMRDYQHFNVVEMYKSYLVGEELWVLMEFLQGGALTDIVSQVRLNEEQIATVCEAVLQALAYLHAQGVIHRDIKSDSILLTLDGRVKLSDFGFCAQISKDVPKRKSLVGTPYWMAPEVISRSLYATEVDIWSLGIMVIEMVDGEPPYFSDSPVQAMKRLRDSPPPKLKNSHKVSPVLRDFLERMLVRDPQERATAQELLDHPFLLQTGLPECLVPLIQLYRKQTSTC

PDGFRB (human) = PDGFRB (human) (UniProt P09619)
Chain of PDGFRB (human) (P09619 whole entry, looked up): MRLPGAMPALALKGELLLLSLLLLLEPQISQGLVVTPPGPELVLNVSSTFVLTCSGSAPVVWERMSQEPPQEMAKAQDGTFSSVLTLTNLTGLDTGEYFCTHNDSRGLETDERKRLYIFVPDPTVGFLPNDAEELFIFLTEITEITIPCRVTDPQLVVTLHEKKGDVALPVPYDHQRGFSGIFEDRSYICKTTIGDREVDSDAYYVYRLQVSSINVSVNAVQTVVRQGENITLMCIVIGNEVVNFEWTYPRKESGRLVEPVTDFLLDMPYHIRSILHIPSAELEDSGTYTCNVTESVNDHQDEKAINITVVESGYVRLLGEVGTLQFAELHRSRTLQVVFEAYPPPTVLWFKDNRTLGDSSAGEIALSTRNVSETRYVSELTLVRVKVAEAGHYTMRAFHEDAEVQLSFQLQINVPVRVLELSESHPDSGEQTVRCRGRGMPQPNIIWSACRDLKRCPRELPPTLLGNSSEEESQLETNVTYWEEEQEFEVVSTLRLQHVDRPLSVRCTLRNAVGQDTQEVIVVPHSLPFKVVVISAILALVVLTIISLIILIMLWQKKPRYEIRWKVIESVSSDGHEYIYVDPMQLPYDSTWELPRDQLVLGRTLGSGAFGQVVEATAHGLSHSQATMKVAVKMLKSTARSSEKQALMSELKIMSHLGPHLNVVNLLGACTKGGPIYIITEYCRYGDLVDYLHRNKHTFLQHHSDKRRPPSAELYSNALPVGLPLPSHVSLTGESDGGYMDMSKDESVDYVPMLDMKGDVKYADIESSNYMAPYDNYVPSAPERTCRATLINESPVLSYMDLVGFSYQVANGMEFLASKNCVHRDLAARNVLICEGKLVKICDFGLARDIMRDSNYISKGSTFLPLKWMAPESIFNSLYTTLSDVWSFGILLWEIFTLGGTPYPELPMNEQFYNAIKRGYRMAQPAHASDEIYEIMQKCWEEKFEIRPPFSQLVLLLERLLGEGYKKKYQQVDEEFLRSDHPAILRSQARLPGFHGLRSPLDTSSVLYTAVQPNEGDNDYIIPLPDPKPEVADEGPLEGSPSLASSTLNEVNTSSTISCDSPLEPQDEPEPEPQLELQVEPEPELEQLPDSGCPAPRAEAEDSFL

PHKG1 (human) = PHKG1 (human) (UniProt Q16816)
Chain of PHKG1 (human) (Q16816 whole entry, looked up): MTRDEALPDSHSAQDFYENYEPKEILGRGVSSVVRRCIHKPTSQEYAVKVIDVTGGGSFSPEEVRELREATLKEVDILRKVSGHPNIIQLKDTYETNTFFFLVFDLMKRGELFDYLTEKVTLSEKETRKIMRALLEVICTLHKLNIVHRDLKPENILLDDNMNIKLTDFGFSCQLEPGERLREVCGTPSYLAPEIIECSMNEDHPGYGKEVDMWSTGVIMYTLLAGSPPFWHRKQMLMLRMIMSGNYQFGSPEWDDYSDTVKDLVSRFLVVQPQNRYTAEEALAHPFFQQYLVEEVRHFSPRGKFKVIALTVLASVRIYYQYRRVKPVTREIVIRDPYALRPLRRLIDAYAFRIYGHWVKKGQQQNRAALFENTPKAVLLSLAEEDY

PIP5K1A (human) = PIP5K1A (human) (UniProt Q99755)
PRKCE (human) = PRKCE (human) (UniProt Q02156)
PRKD3 (human) = PRKD3 (human) (UniProt O94806)
PTK2 (human) = PTK2 (human) (UniProt Q05397)
RIOK1 (human) = RIOK1 (human) (UniProt Q9BRS2)
RPS6KA2 KD2 (human) = RPS6KA2 KD2 (human) (UniProt Q15349)
SBK1 (human) = SBK1 (human) (UniProt Q52WX2)
SIK1 (human) = SIK1 (human) (UniProt P57059)
SIK3 (human) = SIK3 (human) (UniProt Q9Y2K2)
SRPK3 (human) = SRPK3 (human) (UniProt Q9UPE1)
TTK (human) = TTK (human) (UniProt P33981)
[4] = biological target: TYK2 JH2 pseudokinase (human) (UniProt P29597)
VRK2 (human) = VRK2 (human) (UniProt Q86Y07)
YSK4 (human) = YSK4 (human) (UniProt Q56UN5)

Chain of CDC42BPA (human) (Q5VT25 whole entry, looked up): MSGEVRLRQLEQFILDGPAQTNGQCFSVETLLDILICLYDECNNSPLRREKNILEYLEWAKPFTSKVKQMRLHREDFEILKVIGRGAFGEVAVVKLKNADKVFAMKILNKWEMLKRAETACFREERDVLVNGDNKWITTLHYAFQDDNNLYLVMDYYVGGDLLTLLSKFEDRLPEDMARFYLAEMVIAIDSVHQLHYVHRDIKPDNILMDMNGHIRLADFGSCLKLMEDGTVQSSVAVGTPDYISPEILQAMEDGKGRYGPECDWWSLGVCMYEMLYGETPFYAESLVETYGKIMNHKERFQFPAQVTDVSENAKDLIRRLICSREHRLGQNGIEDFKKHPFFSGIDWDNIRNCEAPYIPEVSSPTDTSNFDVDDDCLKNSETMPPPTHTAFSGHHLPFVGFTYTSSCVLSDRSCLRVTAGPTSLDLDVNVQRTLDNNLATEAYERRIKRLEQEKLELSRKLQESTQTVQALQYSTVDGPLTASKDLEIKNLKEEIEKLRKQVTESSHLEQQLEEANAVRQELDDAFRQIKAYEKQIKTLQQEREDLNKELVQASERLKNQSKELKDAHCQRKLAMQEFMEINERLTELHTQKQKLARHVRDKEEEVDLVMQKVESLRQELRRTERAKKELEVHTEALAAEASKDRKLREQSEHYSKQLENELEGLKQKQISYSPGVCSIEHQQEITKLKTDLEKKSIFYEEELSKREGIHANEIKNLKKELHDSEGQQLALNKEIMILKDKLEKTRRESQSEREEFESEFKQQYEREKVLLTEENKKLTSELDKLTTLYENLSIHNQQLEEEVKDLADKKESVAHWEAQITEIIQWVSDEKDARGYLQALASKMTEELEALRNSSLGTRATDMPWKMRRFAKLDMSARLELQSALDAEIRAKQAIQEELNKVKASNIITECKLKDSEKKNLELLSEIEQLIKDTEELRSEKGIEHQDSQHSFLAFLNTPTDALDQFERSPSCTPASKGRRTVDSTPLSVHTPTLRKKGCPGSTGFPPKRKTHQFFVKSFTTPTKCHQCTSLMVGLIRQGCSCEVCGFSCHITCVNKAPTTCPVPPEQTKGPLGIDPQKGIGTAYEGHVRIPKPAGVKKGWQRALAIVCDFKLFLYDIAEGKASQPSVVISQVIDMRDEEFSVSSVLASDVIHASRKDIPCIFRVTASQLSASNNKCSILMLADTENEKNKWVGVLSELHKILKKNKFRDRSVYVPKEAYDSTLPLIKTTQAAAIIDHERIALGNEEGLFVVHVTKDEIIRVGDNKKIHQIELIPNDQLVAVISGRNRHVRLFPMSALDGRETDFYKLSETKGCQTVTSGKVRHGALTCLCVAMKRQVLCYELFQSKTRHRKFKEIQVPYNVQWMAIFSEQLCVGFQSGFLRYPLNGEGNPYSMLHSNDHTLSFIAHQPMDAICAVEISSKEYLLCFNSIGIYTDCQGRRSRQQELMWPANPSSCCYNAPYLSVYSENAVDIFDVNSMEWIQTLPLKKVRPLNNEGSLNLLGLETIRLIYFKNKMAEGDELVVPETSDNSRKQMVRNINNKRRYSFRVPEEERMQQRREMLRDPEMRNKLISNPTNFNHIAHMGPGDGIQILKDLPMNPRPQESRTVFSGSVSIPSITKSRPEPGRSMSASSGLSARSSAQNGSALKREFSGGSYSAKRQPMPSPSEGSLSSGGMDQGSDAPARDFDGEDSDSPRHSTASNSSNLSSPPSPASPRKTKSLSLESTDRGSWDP

SMILES | kinase still bound, per cent of control (AKT1 (human)) [%] | kinase still bound, per cent of control (AKT3 (human)) [%] | kinase still bound, per cent of control (CDC42BPA (human)) [%] | kinase still bound, per cent of control (CDC42BPG (human)) [%] | kinase still bound, per cent of control (CDK11B (human)) [%] | kinase still bound, per cent of control (CDK14 (human)) [%] | kinase still bound, per cent of control (CSF1R (human)) [%] | kinase still bound, per cent of control (DYRK1B (human)) [%] | kinase still bound, per cent of control [1] [%] | kinase still bound, per cent of control (EPHA8 (human)) [%] | kinase still bound, per cent of control [2] [%] | kinase still bound, per cent of control (LYN (human)) [%] | kinase still bound, per cent of control (MAP2K2 (human)) [%] | kinase still bound, per cent of control (MAP2K3 (human)) [%] | kinase still bound, per cent of control (MAP2K4 (human)) [%] | kinase still bound, per cent of control (MAP4K3 (human)) [%] | kinase still bound, per cent of control (MAPK1 (human)) [%] | kinase still bound, per cent of control (MAPK10 (human)) [%] | kinase still bound, per cent of control (MAPK15 (human)) [%] | kinase still bound, per cent of control [3] [%] | also measured
C=CC(=O)Nc1cc(-n2c(=O)ccc3cnc4ccc(-c5cn[nH]c5)cc4c32)ccc1C | 89 | 100 | 97 | 100 | 100 | 60 | 90 | 1.8 | 23 | 96 | 12 | 100 | 83 | 8.6 | 14 | 73 | 100 | 1.8 | 24 | 100 | kinase still bound, per cent of control (MKNK2 (human)): 0.15%; kinase still bound, per cent of control (NLK (human)): 63%; kinase still bound, per cent of control (PAK3 (human)): 81%; kinase still bound, per cent of control (PAK6 (human)): 96%; kinase still bound, per cent of control (PDGFRB (human)): 5.6%; kinase still bound, per cent of control (PHKG1 (human)): 58%; kinase still bound, per cent of control (PIP5K1A (human)): 44%; kinase still bound, per cent of control (PRKCE (human)): 100%; kinase still bound, per cent of control (PRKD3 (human)): 98%; kinase still bound, per cent of control (PTK2 (human)): 96%; kinase still bound, per cent of control (RIOK1 (human)): 53%; kinase still bound, per cent of control (RPS6KA2 KD2 (human)): 92%; kinase still bound, per cent of control (SBK1 (human)): 90%; kinase still bound, per cent of control (SIK1 (human)): 77%; kinase still bound, per cent of control (SIK3 (human)): 78%; kinase still bound, per cent of control (SRPK3 (human)): 68%; kinase still bound, per cent of control (TTK (human)): 21%; kinase still bound, per cent of control [4]: 36%; kinase still bound, per cent of control (VRK2 (human)): 88%; kinase still bound, per cent of control (YSK4 (human)): 1.2%
O=C(Nc1cccc(Nc2ncc(Br)c(NCCc3cnc[nH]3)n2)c1)N1CCCC1 | 100 | 100 | 95 | 49 | 66 | 44 | 1.4 | 35 | 66 | 94 | 7 | 24 | 0.2 | 23 | 0.3 | 4.6 | 77 | 0.1 | 1.8 | 2.4 | kinase still bound, per cent of control (MKNK2 (human)): 0.1%; kinase still bound, per cent of control (NLK (human)): 100%; kinase still bound, per cent of control (PAK3 (human)): 2.6%; kinase still bound, per cent of control (PAK6 (human)): 11%; kinase still bound, per cent of control (PDGFRB (human)): 0%; kinase still bound, per cent of control (PHKG1 (human)): 2.3%; kinase still bound, per cent of control (PIP5K1A (human)): 1%; kinase still bound, per cent of control (PRKCE (human)): 0%; kinase still bound, per cent of control (PRKD3 (human)): 0.5%; kinase still bound, per cent of control (PTK2 (human)): 0.2%; kinase still bound, per cent of control (RIOK1 (human)): 0%; kinase still bound, per cent of control (RPS6KA2 KD2 (human)): 4.8%; kinase still bound, per cent of control (SBK1 (human)): 3.6%; kinase still bound, per cent of control (SIK1 (human)): 0.35%; kinase still bound, per cent of control (SIK3 (human)): 7%; kinase still bound, per cent of control (SRPK3 (human)): 6.2%; kinase still bound, per cent of control (TTK (human)): 5%; kinase still bound, per cent of control [4]: 0%; kinase still bound, per cent of control (VRK2 (human)): 12%; kinase still bound, per cent of control (YSK4 (human)): 0%
